In patent US20060205714A1, “Method of synthesis and isolation of solid N-desmethylclozapine and crystalline forms thereof” (priority 2004, published 2006):
One block for each compound: values may come before it.

Experiments:
[1] = Storage stability of the crystal forms (humidity, temperature, dry nitrogen); format: physicochemical; conditions: for conversion to hydrated or other crystalline forms on storage / stability under humid atmosphere / high relative humidity: stored at high, such as 75% or 90%, relative humidity in air at elevated temperature
[2] = Water solubility of crystal forms; format: physicochemical
Solubility in solvents = format: physicochemical
[3] = test system: psychosis and other neuropsychiatric disorders; conditions: in vivo; cited from earlier work
schizophrenics = conditions: cited from earlier work
[4] = test system: Alzheimer's Disease patients; conditions: cited from earlier work

SMILES: Clc1ccc2c(c1)N=C(N1CCNCC1)c1ccccc1N2 [8-chloro-11-(1-piperazinyl)-5H-dibenzo[b,e]-[1,4]diazepin]
- stability of mixtures of crystal forms A and B [1]: very stable

SMILES: Clc1ccc2c(c1)N=C(N1CCNCC1)c1ccccc1N2 [Form A, 8-chloro-11-(1-piperazinyl)-5H-dibenzo[b,e]-[1,4]diazepin]
- physical and chemical stability ([1]; form obtained at ambient temperatures): excellent physical and chemical stability properties
- conversion to hydrated or other crystalline forms on storage [1]: does not convert to the hydrated forms or other crystalline forms
- stability under humid atmosphere / high relative humidity [1]: very stable under humid atmosphere
- water solubility [2]: better water solubility than crystal form B

SMILES: Clc1ccc2c(c1)N=C(N1CCNCC1)c1ccccc1N2 [NDMC, 8-chloro-11-(1-piperazinyl)-5H-dibenzo[b,e]-[1,4]diazepin]
- effectiveness in the treatment of psychosis and other neuropsychiatric disorders [3]: effective in the treatment of psychosis and other neuropsychiatric disorders

SMILES: CCCCCCOc1nsnc1C1=CCCN(C)C1 [Xanomeline]
- adverse motoric effects (schizophrenics; initial clinical studies in schizophrenics): did not induce adverse motoric effects
- efficacy in treating schizophrenia (schizophrenics; schizophrenia): efficacious in treating schizophrenia
- efficacy against positive and negative symptoms (schizophrenics; schizophrenics): efficacy against both positive and negative symptoms
- efficacy in controlling psychosis and related behavioral disturbances [4]: efficacy in controlling psychosis and related behavioral disturbances

Further lines, with some results ahead:

- stability at elevated temperatures or under dry nitrogen ([1]; elevated temperatures or dry nitrogen, loses its water and is transformed into Form D): unstable
- stability under normal conditions ([1]; normal conditions, ambient temperatures): very stable
- stability under humid atmosphere / high relative humidity [1]: very stable hydrate
- water solubility [2]: specially water soluble
SMILES: Clc1ccc2c(c1)N=C(N1CCNCC1)c1ccccc1N2 [Form B, 8-chloro-11-(1-piperazinyl)-5H-dibenzo[b,e]-[1,4]diazepin]
- conversion to hydrated or other crystalline forms on storage [1]: No conversion to other crystalline forms or hydrates was observed

- solubility in solvents (Solubility in solvents): satisfying solubility in solvents
- time to formation of Form B on contact with humidity ([1]; contacted with humidity): within hours
- stability under exclusion of humidity ([1]; exclusion of humidity, ambient temperature): stable
SMILES: Clc1ccc2c(c1)N=C(N1CCNCC1)c1ccccc1N2 [Form D, 8-chloro-11-(1-piperazinyl)-5H-dibenzo[b,e]-[1,4]diazepin]
